Patent US9580465B2, “Tissue protective peptides and peptide analogs for preventing and treating diseases and disorders associated with tissue damage” (ARAIM PHARMACEUTICALS, INC., priority 2008, dated 2017)
Values joined by “and” are separate entries in the source; they are usually repeats but may differ in a detail not shown here. Equal values may be shown once. “Also recorded” adds a separate entry of the source. Square brackets hold non-standard residues; d marks the D form. Ends that are not written are not given here.

How the values were obtained:
[1] = system: histamine; assay: Histamine induced wheal formation, peptide given at time of challenge; format: in vivo, Sprague-Dawley rats; settings: 30 μg/kg at time of histamine challenge
Procedure: Under isoflurane anesthesia, 12 Sprague-Dawley rats' abdomens were shaved and depilated. Each rat was then injected intravenously (via internal jugular) with a dilute solution of Evans Blue (30 mg/ml in saline, 1 ml/kg bw). After 5 minutes, 6 small doses of histamine (Histamine diphosphate, 20 microliters administered intradermally) in a rectangular pattern on each rat's abdomen. After fifteen minutes, when the wheal reaches its maximum size the wheal is photographed and the blister area was determined by digital planimetry. To test the efficacy of various peptides, the peptide of interest was administered to the rats intravenously shortly after the histamine injection.
Rats received either saline, Peptide IY (30 μg/kg), Peptide ID (30 μg/kg), or Peptide IW (30 μg/kg) at time of histamine challenge.
Rats received either saline, peptide JA (30 μg/kg), peptide IZ (30 μg/kg), peptide IW (30 μg/kg) or peptide ID (30 μg/kg) at time of histamine challenge.

[2] = system: bilateral renal ischemia; assay: Bilateral renal ischemia assay; format: in vivo, C57/BL6 mice
Procedure: Sixty male C57/BL6 mice (˜25 g; Charles River Laboratories) were anesthetized with ketamine (150 mg/kg) and xylazine (15 mg/kg) i.p. Each animal was placed on a homeothermic blanket set at 37° C., and after a mid-line laparotomy, the renal pedicles were clamped for 30 minutes using nontraumatic vascular clamps. Peptide ID was administered at the indicated dose via i.p. Injection at 1 minute, 6 hours, and 12 hours after reperfusion. In a single dose study, the mice received a control (PBS), 1 μg/kg of Peptide IG at 1 minute, 1 μg/kg of Peptide IG at 30 minutes, 1 μg/kg of Peptide ID at 6 hours, or 10 μg/kg of Peptide ID at 6 hours (12 mice per group). In a multiple dose study, the mice received either multiple doses of a control (PBS), 0.1 μg/kg of Peptide ID, 1 μg/kg of Peptide ID, or 10 μg/kg of Peptide ID at 1 minute, 6 hours and 12 hours into reperfusion.
Twenty-four hours later, mice were reanesthetized and blood was obtained by cardiac puncture. Plasma urea and creatine were used as indicators of renal dysfunction and aspartate aminotransferase was used as an indicator of renal injury. Data were analyzed using ANOVA followed by Dunnett's post hoc test comparison.

[3] = system: middle cerebral artery occlusion; assay: Middle cerebral artery occlusion model; format: in vivo, Sprague Dawley rats; settings: after MCAO; 2 μg/kg bw i.v. upon reperfusion, then three injections at 2-hour intervals; FIG. 5
Procedure: Sprague Dawley rats (8 per group) are subjected to the following MCAO protocol Surgery was performed in accordance with the teachings of Brines et al, 2000, PNAS USA 97:10526-10531 (hereby incorporated by reference in its entirety. Briefly, the rats are anesthetized with chloral hydrate (400 mg/kg-bw, i.p.), the carotid arteries were visualized, and the right carotid was occluded by two sutures and severed. A burr hole adjacent and rostral to the right orbit allowed visualization of the middle cerebral artery (“MCA”), which was cauterized distal to the rhinal artery. To produce a penumbra (border zone) surrounding this fixed MCA lesion, the contralateral carotid artery was occluded for 1 hour by using […] provided by a fine forceps and then re-opened.
The rats were administered saline, Peptide ID as a single i.v. dose (2 μg/kg bw), or Peptide IX, […], SEQ ID NO: 301), a scrambled version of Peptide IC, SEQ ID NO: 281, as a single Lv. dose (2 μg/kg bw) upon reperfusion, followed by three additional injections at 2-hour intervals. For assessment of injury, rats are subjected to behavioral testing or the volume of the lesion is determined by tetrazolium staining of brain sections performed 24 hours post surgery in accordance with the previously noted protocol.
The volume of the lesion was then determined by tetrazolium staining of brain sections performed 24 hours post surgery.
Rats were also tested in a foot fault behavioral protocol. Rats were tested on an elevated stainless steel grid floor 30 cm×30 cm with grid size of 30 mm according to the protocol of Markgraf et al., 1992, Brain Research 575:238-246 (hereby incorporated by reference in its entirety). When placed on the grid, a rat would attempt to move around and occasionally place a foot, rather than on the grid, through a grid opening (“foot fault”). The number of foot faults was measured for a 1 minute period.
The number of foot faults is indicative of the cognitive impairment of the rats due to the MCAO, the fewer the number of foot faults the less cognitive impairment.

[4] = system: pressure ulcer; assay: Decubitus ulcer (pressure sore) assay; format: in vivo, Sprauge-Dawley rats; settings: 30 μg/kg sc daily; compared with all groups; FIG. 20
Procedure: A decubitus ulcer (pressure sore) assay was performed on 24 adult Sprauge-Dawley rats in accordance with the disclosure of Pierce et al., Selective A2A adenosine receptor activation reduces skin pressure ulcer formation and inflammation, Am J Physiol Heart Circ Physiol 281:67-74, 2001. Briefly, a ferromagnetic steel plate was implanted under a dorsal region of the rats skin. A rectangular permanent magnet was applied to the area of the skin under which the plate was implanted in order to compress the skin between the plate and the magnet. This compression reduced the flow of blood to the skin causing ischemia. The rats were subjected to a cycle of ischemia-reperfusion (2 hours ischemia with a 0.5 hour reperfusion) for a 72-hour period. […] Daily the area of the wound on each rat was measured for a period of 12 days.

[5] = system: 9 L gliosarcoma cells; assay: 9 L gliosarcoma implantation model, delayed treatment; format: in vivo, CD Fisher rats; settings: 25 nmole/kg i.p. daily starting two weeks after implantation, three weeks, FIG. 13, 14
Procedure: In accordance with the accordance with the protocol of Lampson et al. Cancer Res. 53:176-82:1993 described above, CD Fisher rats were implanted with 9 L gliosarcoma cells transfected with the LacZ gene by use of a Hamilton syringe. 100,000 cells in 10 microliters were injected into the right caudate.
ID with a short plasma half life, another receiving Peptide IW (pegylated form of Peptide IC) and the third group received saline. Peptides were given at a dose of 25 nmole/kg body weight. Three weeks later, the animals were sacrificed and serial 1 mm thick coronal sections cut through the brain and incubated with 5-bromo-4-chloro-3-indolyl-[beta]-D-galactopyranoside (Xgal). Tumor cells (containing the LacZ gene) metabolized Xgal into a dark blue stain, localizing the extent of tumor. High resolution digital images were obtained and the areas stained blue determined using planimetric methodology. Data is expressed as total area of tumor infiltration.

[6] = system: cisplatin induced neuropathy; assay: Cisplatin induced peripheral neuropathy (hotplate latency); format: in vivo, rats; settings: CDDT 2 mg/kg i.p. twice a week; peptide 0.4 μg/kg three times a week for 5 weeks; FIG. 11
Procedure: Also, CDDT is known to induce peripheral neuropathy, among other toxicities. Following the experimental design described above for renal function, the ability of Peptide IC to protect against peripheral neuropathy was also evaluated. 2 mg/kg CDDT was administered intraperitoneally, twice a week for 5 weeks. Peptide IC was simultaneously administered at a dose of 0.4 μg/kg, three times a week for 5 weeks. Neuropathy was evaluated by hotplate latency, the delay period between contact of the rat's foot to a warm surface, and the retraction of the foot.

[7] = system: cisplatin-induced nephropathy; assay: Cisplatin induced nephropathy; format: in vivo, rats; settings: CDDT 2 mg/kg i.p. twice a week; peptide 0.4 μg/kg three times a week for 5 weeks; FIG. 10
Procedure: Cancer chemotherapeutic agents such as cisplatin (CDDT) are known to induce renal injury among other toxicities. The ability of Peptide IC to protect rats form cisplatin-induced nephropathy was evaluated by administering 2 mg/kg CDDT intraperitoneally, twice a week for 5 weeks. Peptide IC was simultaneously administered at a dose of 0.4 μg/kg, three times a week for 5 weeks. Renal function was evaluated by measuring the volume of urine production.

**Q.** For “GLpLSEARNQSEL [Peptide IY, reference compound]”, which anti-inflammatory activity ([1]; FIG. 18) is on record?
**A.** The anti-inflammatory activity was “did not exhibit anti-inflammatory activity”.

**Q.** And the “wheal area (lesion area)” value ([1]; FIG. 18)?
**A.** The value was “about 0.6 cm^2”.

**Q.** For “GSWQRSLQDTE (Glucagon derived Peptide IH) [glucagon region]”, which “creatinine, urea and aspartate aminotransferase (biochemical markers of renal dysfunction)” value ([2]; multiple doses 1 μg/kg at 1 minute, 6 hours and 12 hours into reperfusion, FIG. 7) is on record?
**A.** The value was “reduction in these biochemical markers of renal dysfunction”.

**Q.** And the “creatinine, urea and aspartate aminotransferase (biochemical markers of renal dysfunction)” value ([2]; multiple doses 10 μg/kg at 1 minute, 6 hours and 12 hours into reperfusion, FIG. 7)?
**A.** The value was “reduction in these biochemical markers of renal dysfunction”.

**Q.** What about the “creatinine, urea and aspartate aminotransferase (biochemical markers of renal dysfunction)” value ([2]; single dose 1 μg/kg at 6 hours into reperfusion, 24 hrs of reperfusion, FIG. 6) of the same substance?
**A.** Its value is “reduction in these biochemical markers of renal dysfunction”.

**Q.** And the “creatinine, urea and aspartate aminotransferase (biochemical markers of renal dysfunction)” value ([2]; single dose 10 μg/kg at 6 hours into reperfusion, 24 hrs of reperfusion, FIG. 6)?
**A.** Its value is “reduction in these biochemical markers of renal dysfunction”.

**Q.** With “LSEQARNQSEL [Peptide IX, scrambled version of Peptide IC; called Peptide JA in b476, reference compound]” as the substance, how does the “wheal area (lesion area)” value ([1]; FIG. 19) read?
**A.** The value was “about 0.6 cm^2”.

**Q.** What about the “number of foot faults in 1 minute period” value [3] of the same substance?
**A.** Its value is 20.1±2.1 foot faults.

**Q.** How did the “wound (ulcer) size (area)” value [4] turn out when “NAIIKNAYKKG (Beta endorphin derived Peptide IG) [beta endorphin region]” was run?
**A.** Its value is “smallest wound size”.

**Q.** Which “wheal area (lesion area)” value ([1]; FIG. 18) does the source give for “PEG-QEQLERALNSS (XEQLERALNSS; PEG; Peptide IW) [pegylated form of Peptide IC, extended half-life peptide]” here?
**A.** Its value is ~0.3 cm^2.

**Q.** And the “tumor size (total area of tumor infiltration)” value [5]?
**A.** Its value is “marked reduction in tumor size; also recorded: exhibited the best outcomes; also recorded: reduction in size of the tumor equivalent to that achieved by immediate treatment with Peptide ID”.

**Q.** And the “tumor size (total area of tumor infiltration)” value ([5]; listed as Peptide 1W)?
**A.** Its value is “reduced the size of tumor”.

**Q.** Which results are given for “QEQLERALNSS (Helix B amino acids derived Peptide IC) [exterior-presenting amino acids of helix B of EPO]”?
**A.** hotplate latency (time to withdraw paw) [6]: prevented the appearance of peripheral neuropathy; also recorded: substantially similar to the control group (PBS); volume of urine production (renal function) [7]: protected against renal dysfunction due to CDDT; also recorded: substantially like that of the control (PBS) group

**Q.** For “SSNLARELQEQ ([dS][dS][dN][dL][dA][dR][dE][dL][dQ][dE][dQ]; also: retro-inverso) [Peptide IZ, Retro Inverso Peptide IC]”, which “wheal area (lesion area)” value ([1]; FIG. 19) is on record?
**A.** The value was ~0.4 cm^2 and 0.35 cm^2.
